Results: US11312719B2, “9-substituted amino triazolo quinazoline derivatives as adenosine receptor antagonists, pharmaceutical compositions and their use” (Merck Sharp & Dohme Corp., priority 2018, dated 2022)

How the values were obtained:
[1] = target: human A2a adenosine receptor (Homo sapiens (Human), UniProt P29274); assay: A2a receptor affinity radioligand binding assay ([3H] SCH58261); details: for IC50: membranes from HEK293 or CHO cells expressing human A2a receptor
Experimental: The A2a receptor affinity binding assay measured the amount of binding of a tritiated ligand with high affinity for the A2a adenosine receptor to membranes made from HEK293 or CHO cells recombinantly expressing the human A2a adenosine receptor, in the presence of varying concentrations of a compound of the invention.
Measurement of A2a Binding Affinity Using Radioligand Binding
148 μL (5 μg/mL) membranes (Perkin Elmer, Cat. No. RBHA2aM400UA) and 2 μL compounds of the invention to be tested (test compound) were transferred to individual wells of a 96-well polypropylene assay plate and incubated for 15 to 30 minutes at room temperature. [^3H] SCH58261 ((7-(2-phenylethyl)-5-amino-2-(2-furyl)-pyrazolo-[4,3-e]-1,2,4-triazolo[1,5-c]pyrimidine)) was diluted in assay buffer (50 mM Tris pH 7.4, 10 mM MgCl2, 0.005% Tween20) to a concentration of 4 nM and 50 μL transferred to each well of the assay plate. To define total and non-specific binding, wells containing 1% DMSO and 1 μM ZM241385 (Tocris Bioscience, Cat. No. 1036) respectively, were also included. The assay plate was incubated at room temperature for 60 minutes with agitation. Using a FilterMate Harvester® (Perkin Elmer), the contents of the assay plate were filtered through a UniFilter-96® PEI coated plate (Perkin Elmer Cat. No. 6005274 or 6005277). Filtering was achieved by aspirating the contents of the assay plate for 5 seconds, then washing and aspirating the contents three times with ice-cooled wash buffer (50 mM Tris-HCl pH 7.4, 150 mM NaCl) and allowing the vacuum manifold to dry the plate for 30 seconds. The filter plate was incubated for at least 1 hour at 55° C., and allowed to dry. The bottom of the filter plate was sealed with backing tape. 40 μL Ultima Gold™ (Perkin Elmer, Cat. No. 6013329) was added to each well of the filter plate and the top of the plate was sealed with TopSeal-A PLUS® clear plate seal (Perkin Elmer, Cat. No. 6050185). The plate was incubated for at least 20 minutes, and then the amount of radioactivity remaining in each well was determined using a TopCount® (Perkin Elmer) scintillation counter. After normalization to total and non-specific binding, the percent effect at each compound concentration was calculated. The plot of percent effect versus the log of compound concentration was analyzed electronically using a 4-parameter logistic fit based on the Levenberg-Marquardt algorithm to generate IC50 values.

[2] = target: human A2b adenosine receptor (Homo sapiens (Human), UniProt P29275); assay: A2b radioligand filtration binding assay; details: for IC50: membranes from HEK293 cells expressing human A2b receptor
human A2b adenosine receptor, sequence (P29275 whole entry): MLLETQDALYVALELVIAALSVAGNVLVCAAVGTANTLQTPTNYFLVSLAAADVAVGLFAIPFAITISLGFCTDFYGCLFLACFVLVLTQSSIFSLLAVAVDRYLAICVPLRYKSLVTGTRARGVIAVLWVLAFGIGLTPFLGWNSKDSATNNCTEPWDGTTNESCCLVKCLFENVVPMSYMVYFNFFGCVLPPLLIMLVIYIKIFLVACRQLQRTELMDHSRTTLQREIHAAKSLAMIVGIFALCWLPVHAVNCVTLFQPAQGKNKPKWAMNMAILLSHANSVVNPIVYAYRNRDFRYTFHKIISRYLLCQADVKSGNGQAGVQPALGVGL
Experimental: Measurement of A2b Binding Affinity
The reported affinity of the compounds of the invention for the human A2b adenosine receptor was determined experimentally using a radioligand filtration binding assay. This assay measures the amount of binding of a tritiated proprietary A2b receptor antagonist, in the presence and absence of a compound of the invention, to membranes made from HEK293 cells recombinantly expressing the human A2b adenosine receptor (Perkin Elmer, Cat. No. ES-013-C).
148 μL (135 μg/mL) membranes and 2 μL test compounds were transferred to individual wells of a 96-well polypropylene assay plate and incubated for 15 to 30 minutes at room temperature with agitation. Tritiated radioligand was diluted to a concentration of 14 nM in assay buffer (phosphate buffered saline without Magnesium and Calcium, pH 7.4; GE Healthcare Life Sciences, Cat. No. SH30256.01) and then 50 μL of the solution were transferred to each well of the assay plate. To define total and non-specific binding, wells containing 1% DMSO and 20 μM N-ethylcarboxamidoadenosine (Tocris Bioscience, Cat. No. 1691) respectively, were also included. The wells of the assay plate were incubated at room temperature for 60 minutes with agitation, then filtered using a FilterMate Harvester® (Perkin Elmer) or similar equipment through a UniFilter-96® PEI coated plate (Perkin Elmer Cat. No. 6005274 or 6005277). Filtering was achieved by aspirating the contents of the assay plate for 5 seconds, then washing and aspirating the contents three times with ice-cooled wash buffer (assay buffer supplemented with 0.0025% Brij58) and allowing the vacuum manifold to dry the plate for 30 seconds. The filter plate was incubated for at least 1 hour at 55° C. and allowed to dry. The bottom of the filter plate was then sealed with backing tape. 40 μL Ultima Gold™ (Perkin Elmer, Cat. No. 6013329) was added to each well of the filter plate and the top of the plate was sealed with TopSeal-A PLUS® clear plate seal (Perkin Elmer, Cat. No. 6050185). The plates were then incubated for at least 20 minutes, and then the amount of radioactivity remaining in each well was determined using a TopCount® (Perkin Elmer) scintillation counter. After normalization to total and non-specific binding, the percent effect at each compound concentration was calculated. The plot of percent effect versus the log of compound concentration was analyzed electronically using a 4-parameter logistic fit based on the Levenberg-Marquardt algorithm to generate IC50 values.

human A2a adenosine receptor, sequence (P29274 whole entry): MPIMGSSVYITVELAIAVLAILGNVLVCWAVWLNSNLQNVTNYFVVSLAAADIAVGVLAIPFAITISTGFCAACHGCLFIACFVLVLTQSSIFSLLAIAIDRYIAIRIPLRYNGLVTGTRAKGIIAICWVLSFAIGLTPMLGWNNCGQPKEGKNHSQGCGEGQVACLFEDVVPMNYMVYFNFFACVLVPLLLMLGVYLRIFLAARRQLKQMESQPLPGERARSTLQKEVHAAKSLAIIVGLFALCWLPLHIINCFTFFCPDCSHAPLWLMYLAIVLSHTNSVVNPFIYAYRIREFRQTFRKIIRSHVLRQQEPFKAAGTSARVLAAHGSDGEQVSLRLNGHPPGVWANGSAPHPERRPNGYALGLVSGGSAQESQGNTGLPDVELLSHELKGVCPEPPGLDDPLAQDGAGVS

SMILES | IC50 [1] | IC50 [2] | A2A binding % Inh. @ 1000 nM ([1]; @ 1000 nM) | A2B binding % Inh. @ 10000 nM [2]
COc1cc2nc(N)n3nc(C4CC(F)CN(c5cnn(C6CCOCC6)c5)C4)nc3c2cc1F (single isomer, unassigned) [Example 56, 9-fluoro-2-((3R,5S or 3S,5R)-5-fluoro-1-(1-(tetrahydro-2H-pyran-4-yl)-1H-pyrazol-4-yl)piperidin-3-yl)-8-methoxy-[1,2,4]triazolo[1,5-c]quinazolin-5-amine] | 1.8 nM | 846 nM | – | –
COc1cc2nc(N)n3nc(C45CC4CN(c4cnn(CC(C)(C)O)c4)C5)nc3c2cc1F (single isomer, unassigned) [Example 58, 1-(4-((1R,5R or 1S,5S)-1-(5-amino-9-fluoro-8-methoxy-[1,2,4]triazolo[1,5-c]quinazolin-2-yl)-3-azabicyclo[3.1.0]hexan-3-yl)-1H-pyrazol-1-yl)-2-methylpropan-2-ol] | 13.6 nM | 136 nM | – | –
COc1cc2nc(N)n3nc(C4CCCCN(c5cnn(CC(C)(C)O)c5)C4)nc3c2cc1F (single isomer, unassigned) [Example 60, (R or S)-1-(4-(3-(5-amino-9-fluoro-8-methoxy-[1,2,4]triazolo[1,5-c]quinazolin-2-yl)azepan-1-yl)-1H-pyrazol-1-yl)-2-methylpropan-2-ol] | 31.4 nM | 5860 nM | – | –
COc1cc2nc(N)n3nc(C4CCCCN(c5cnn(CC(C)(C)O)c5)C4)nc3c2cc1F (single isomer, unassigned) [Example 61, (S or R)-1-(4-(3-(5-amino-9-fluoro-8-methoxy-[1,2,4]triazolo[1,5-c]quinazolin-2-yl)azepan-1-yl)-1H-pyrazol-1-yl)-2-methylpropan-2-ol] | 5 nM | 99 nM | – | –
COc1cc2nc(N)n3nc(C4(F)CCN(c5cnn(CC(C)(C)O)c5)C4)nc3c2cc1F (single isomer, unassigned) [Example 62, (R or S)-1-(4-(3-(5-amino-9-fluoro-8-methoxy-[1,2,4]triazolo[1,5-c]quinazolin-2-yl)-3-fluoropyrrolidin-1-yl)-1H-pyrazol-1-yl)-2-methylpropan-2-ol] | 146 nM | 383 nM | – | –
COc1cc2nc(N)n3nc(C4(F)CCN(c5cnn(CC(C)(C)O)c5)C4)nc3c2cc1F (single isomer, unassigned) [Example 63, (S or R)-1-(4-(3-(5-amino-9-fluoro-8-methoxy-[1,2,4]triazolo[1,5-c]quinazolin-2-yl)-3-fluoropyrrolidin-1-yl)-1H-pyrazol-1-yl)-2-methylpropan-2-ol] | 242 nM | 2430 nM | – | –
COc1cc2nc(N)n3nc([C@@H]4CCCN(c5ncn(C(C)C(C)(C)O)n5)C4)nc3c2cc1F (single isomer, unassigned) [Example 64, (R or S)-3-(3-((R)-3-(5-amino-9-fluoro-8-methoxy-[1,2,4]triazolo[1,5-c]quinazolin-2-yl)piperidin-1-yl)-1H-1,2,4-triazolo-1-yl)-2-methylbutan-2-ol] | 1 nM | 555 nM | – | –
COc1cc2nc(N)n3nc([C@@H]4CCCN(c5ncn(C(C)C(C)(C)O)n5)C4)nc3c2cc1F (single isomer, unassigned) [Example 65, (S or R)-3-(3-((R)-3-(5-amino-9-fluoro-8-methoxy-[1,2,4]triazolo[1,5-c]quinazolin-2-yl)piperidin-1-yl)-1H-1,2,4-triazolo-1-yl)-2-methylbutan-2-ol] | 1.2 nM | 228 nM | – | –
COc1cc2nc(N)n3nc(C4CN(c5cnn(CC(C)(C)O)c5)CCC4C)nc3c2cc1F (single isomer, unassigned) [Example 66, 1-(4-((3S or 3R,4S or 4R)-3-(5-amino-9-fluoro-8-methoxy-[1,2,4]triazolo[1,5-c]quinazolin-2-yl)-4-methylpiperidin-1-yl)-1H-pyrazol-1-yl)-2-methylpropan-2-ol] | 0.6 nM | 957 nM | – | –
COc1cc2nc(N)n3nc(C4CN(c5cnn(CC(C)(C)O)c5)CCC4C)nc3c2cc1F (single isomer, unassigned) [Example 67, 1-(4-((3R or 3S,4R or 4S)-3-(5-amino-9-fluoro-8-methoxy-[1,2,4]methylpiperidin-1-yl)-1H-pyrazol-1-yl)-2-methylpropan-2-ol] | – | – | 44% Inh. | 31% Inh.
COc1cc(F)cc2c1nc(N)n1nc([C@@H]3C[C@H](F)CN(c4cnn(CC(C)(C)O)c4)C3)nc21 (single isomer, unassigned) [Example 68, 1-(4-((3R,5S or 3S,5R)-3-(5-amino-9-fluoro-7-methoxy-[1,2,4]triazolo[1,5-c]quinazolin-2-yl)-5-fluoropiperidin-1-yl)-1H-pyrazol-1-yl)-2-methylpropan-2-ol] | 181 nM | – | – | 31% Inh.
COc1cc(F)cc2c1nc(N)n1nc([C@H]3C[C@@H](F)CN(c4cnn(CC(C)(C)O)c4)C3)nc21 (single isomer, unassigned) [Example 69, 1-(4-((3S,5R or 3R,5S)-3-(5-amino-9-fluoro-7-methoxy-[1,2,4]triazolo[1,5-c]quinazolin-2-yl)-5-fluoropiperidin-1-yl)-1H-pyrazol-1-yl)-2-methylpropan-2-ol] | 2.6 nM | 561 nM | – | –
COc1cc(F)cc2c1nc(N)n1nc(C3CC(F)CN(c4cn(CC(C)(C)O)nc4C)C3)nc21 (single isomer, unassigned) [Example 70, 1-(4-((3R,5S or 3S,5R)-3-(5-amino-9-fluoro-7-methoxy-[1,2,4]triazolo[1,5-c]quinazolin-2-yl)-5-fluoropiperidin-1-yl)-3-methyl-1H-pyrazol-1-yl)-2-methylpropan-2-ol] | 0.6 nM | 786 nM | – | –
COc1cc(F)cc2c1nc(N)n1nc(C3CC(F)CN(c4cn(CC(C)(C)O)nc4C)C3)nc21 (single isomer, unassigned) [Example 71, 1-(4-((3S,5R or 3R,5S)-3-(5-amino-9-fluoro-7-methoxy-[1,2,4]fltriazolo[1,5-c]quinazolin-2-yl)-5-fluoropiperidin-1-yl)-3-methyl-1H-pyrazol-1-yl)-2-methylpropan-2-ol] | 35.6 nM | – | – | 43% Inh.
COc1cc(F)cc2c1nc(N)n1nc(C3CC(F)CN(c4cnn(CC5(O)CCC5)c4)C3)nc21 (single isomer, unassigned) [Example 72, 1-(4-((3R,5S or 3S,5R)-3-(5-amino-9-fluoro-7-methoxy-[1,2,4]triazolo[1,5-c]quinazolin-2-yl)-5-fluoropiperidin-1-yl)-1H-pyrazol-1-yl)methyl)cyclobutan-1-ol] | 2 nM | 484 nM | – | –
COc1cc(F)cc2c1nc(N)n1nc(C3CC(F)CN(c4cnn(CC5(O)CCC5)c4)C3)nc21 (single isomer, unassigned) [Example 73, 1-(4-((3S,5R or 3R,5S)-3-(5-amino-9-fluoro-7-methoxy-[1,2,4]triazolo[1,5-c]quinazolin-2-yl)-5-fluoropiperidin-1-yl)-1H-pyrazol-1-yl)methyl)cyclobutan-1-ol] | 436 nM | 5120 nM | – | –
